Reference: patent publication US8354522B2, “Immunostimulatory oligoribonucleotides” (Coley Pharmaceutical GmbH, priority 2005, dated 2013)
Entries after “also recorded” stand apart in the source; their conditions may differ.

What was measured:
[1] = tested on: isolated pDC; experiment: IFN-alpha production upon isolated pDC stimulation; assay type: cell-based, human; details: 0.5 μM ORN complexed to 10 μg/ml DOTAP, 16 h
Protocol: FIG. 2 is a set of bar graphs depicting ORN induced cytokine production upon isolated pDC (FIG. 2a), monocytes (FIG. 2b) and mDC (FIG. 2c) stimulation. Cells were stimulated with 0.5 μM ORN complexed to 10 μg/ml DOTAP, 0.5 μM CpG ODN or DOTAP or media alone and IFN-alpha (FIG. 2a), TNF-alpha […] and IL-12p40 (FIG. 2c) were measured.
A similar assay testing different ORN sequences was performed using isolated pDC, monocytes and mDC stimulation. Cells were stimulated with 0.5 μM ORN complexed to 10 μg/ml DOTAP, 0.5 μM CpG ODN or DOTAP or media alone. After 16 h the supernatants were harvested and IFN-alpha, TNF-alpha and IL-12p40 levels were measured by ELISA.

[2] = tested on: CD14-positive cell; experiment: CD80 surface marker expression upon CD14-positive cell stimulation (FACS); assay type: cell-based; details: human PBMC (data not shown) and CD14-positive cells, ORN complexed to DOTAP, 16 h
Protocol: FIG. 10 is a series of graphs showing surface marker expression upon human pDC stimulation with AU-rich or GU-rich ORN. CD123+ purified pDC (FIGS. 10a and 10b) or isolated monocytes (FIG. 10c) were incubated with 1 μM ORN complexed to 25 μg/ml DOTAP or DOTAP alone (FIG. 10a) or indicated amounts of ORN complexed to DOTAP or DOTAP alone (FIGS. 10b-10c). After 16 h cells were harvested and stained with CD123, CD11c and HLA-DR antibodies (FIGS. 10a and 10b) or CD14 and CD19 (FIG. 10c). Cell surface marker activation was measured by CD86 (FIGS. 10a and 10b) or CD80 (FIG. 10c) expression. […] FIG. 10b is a graph illustrating that CD86 surface marker expression upon human pDC stimulation is dose-dependent.
CD123+ purified pDC (FIGS. 10a and 10b) or isolated monocytes (FIG. 10c) were incubated with 1 μM ORN complexed to 25 μg/ml DOTAP or DOTAP alone (FIG. 10a) or indicated amounts of ORN complexed to DOTAP or DOTAP alone (FIGS. 10b-10c). After 16 h cells were harvested and stained with CD123, CD11c and HLA-DR antibodies (FIGS. 10a and 10b) or CD14 and CD19 (FIG. 10c). […] This activation was determined to be dose-dependent (FIG. 10b).

[3] = tested on: Raw264.7 cells, J774 cells, purified mouse CD11c+ cells; experiment: Cytokine production by mouse cells in vitro (ELISA); assay type: cell-based; details: ORN complexed to DOTAP, 16 or 20 hours
Protocol: (§1) Cells used were mouse macrophage cell line Raw264.7 cells (FIG. 12a), J774 cells (FIG. 12b), purified mouse CD11c+ cells (sv129 mice) (FIGS. 12c-12h) and mouse cells in vivo. Cytokine concentration was evaluated by ELISA.
(§2) Raw264.7 cells (FIG. 12a), J774 cells (FIG. 12b) and purified CD11c+ cells (Milteny, magnetic bead labeling) were isolated from sv129 mice splenocytes (FIGS. 12c-12e) and were stimulated with indicated concentrations of ORN complexed to DOTAP (50 μg/ml and diluted with ORN), R-848 or DOTAP alone (50 μg/ml). After 16 hours (FIGS. 12a and 12b) or 20 hours (FIGS. 12c-12e) supernatants were harvested and used for TNF-alpha (FIGS. 12a and 12b), IL-12p40 (FIG. 12c), IFN-alpha (FIG. 12d) and IP-10 (FIG. 12e) ELISA. Data represent one individual from at least three experiments (FIGS. 12a and 12b) and mean of 3 mice (FIGS. 12c-12e). To measure the ability of AU-rich ORN to stimulate mouse cells in vivo, sv129 mice (n=5/group) were injected with the indicated amounts of ORN formulated with DOTAP (60, 20 or 6 μg/ml), and bled after 3 hours. IL-12p40 (FIG. 12f), IFN-alpha (FIG. 12g) and IP-10 (FIG. 12h) production was measured within whole blood by ELISA.

[4] = tested on: sv129 mice; experiment: Cytokine production in sv129 mice in vivo (whole blood ELISA, 3 hours); design: species or system mouse; details: ORN formulated with DOTAP, bled after 3 hours
Protocol: as §1, §2

[5] = tested on: Splenocytes from 3 Sprague-Dawley rats; experiment: TNF-alpha production by rat splenocytes (ELISA); assay type: cell-based; details: pooled rat splenocytes, ORN complexed to 62.5 μg/ml DOTAP with 1/5 dilution, 20 hours
Protocol: Splenocytes from 3 Sprague-Dawley rats were pooled and stimulated with indicated concentrations of SEQ ID NO:21, SEQ ID NO:13 (both complexed to 62.5 μg/ml DOTAP with 1/5 dilution), R-848 or DOTAP alone (62.5 μg/ml->1/5 dilution). Supernatants were harvested after 20 hours and TNF-alpha levels were measured by ELISA.

Row | Substance | IFN-alpha production upon pDC stimulation (in words) [1] | CD80 surface marker expression [2] | response of mouse macrophages/cells in vitro (TNF-alpha, IL-12p40, IFN-alpha, IP-10) [3] | response of mouse cells in vivo (IL-12p40, IFN-alpha, IP-10 in whole blood) [4] | TNF-alpha production [5]
1 | U*U*A*U*U*A*U*U*A*U*U*A*U*U*A*U*U*A*U*U (UUAUUAUUAUUAUUAUUAUU; chemistry not fully specified) [SEQ ID NO: 13] | strongly reduced IFN-alpha production; also recorded: no IFN-alpha cytokine production | no difference in CD80 surface marker expression | do not Respond | do not Respond | no TNF-alpha production
2 | U*U*G*U*U*G*U*U*G*U*U*G*U*U*G*U*U*G*U*U (UUGUUGUUGUUGUUGUUGUU; listed as RNA, chemistry not fully specified) [SEQ ID NO: 21] | – | no difference in CD80 surface marker expression | – | – | resulted in TNF-alpha production
